Broadly, the ED50 is the midpoint of the dose-response relation.

Here are results for 22 compounds from ChEMBL document CHEMBL1122330, “Studies on v-triazoles. 7. Antiallergic 9-oxo-1H,9H-benzopyrano[2,3-d]-v-triazoles” (1983).

Where only a bound is given, the exact number is not on record here.

What all share (format): functional
Assay [1] has as its system Rattus norvegicus. Kind of assay: Inhibition of passive cutaneous anaphylaxis (PCA) in Charles Rivers Sprague-Dawley rat after intravenous administration; value range from 1.6 to 3.0.
The subject of assay [2] is Rattus norvegicus. Kind of assay: Inhibition of passive cutaneous anaphylaxis (PCA) in Charles Rivers Sprague-Dawley rat after intravenous administration.
For assay [3], the system named is Rattus norvegicus. In words: Inhibition of passive cutaneous anaphylaxis (PCA) in Charles Rivers Sprague-Dawley rat after intravenous administration; value range from 1.8 to 2.7.
For assay [4], the system named is Rattus norvegicus. In words: Inhibition of passive cutaneous anaphylaxis (PCA) in Charles Rivers Sprague-Dawley rat after intravenous administration; value range from 1.5 to 2.9.
For assay [5], the system named is Rattus norvegicus. In words: Inhibition of passive cutaneous anaphylaxis (PCA) in Charles Rivers Sprague-Dawley rat after intravenous administration; value range from 0.8 to 1.4.
Assay [6] relates to Rattus norvegicus. In words: Inhibition of passive cutaneous anaphylaxis (PCA) in Charles Rivers Sprague-Dawley rat after intravenous administration; value range from 0.05 to 0.6.
For assay [7], the system named is Rattus norvegicus. In words: Inhibition of passive cutaneous anaphylaxis (PCA) in Charles Rivers Sprague-Dawley rat after intravenous administration; value range from 0.2 to 0.3.
For assay [8], the system named is Rattus norvegicus. Kind of assay: Inhibition of passive cutaneous anaphylaxis (PCA) in Charles Rivers Sprague-Dawley rat after intravenous administration; value range from 0.3 to 0.5.
The test system of assay [9] is Rattus norvegicus. Kind of assay: Inhibition of passive cutaneous anaphylaxis (PCA) in Charles Rivers Sprague-Dawley rat after intravenous administration; value range from 1.4 to 2.4.
Assay [10] concerns Rattus norvegicus. In words: Inhibition of passive cutaneous anaphylaxis (PCA) in Charles Rivers Sprague-Dawley rat after intravenous administration; value range from 0.1 to 0.4.
Assay [11] has as its system Rattus norvegicus. In words: Inhibition of passive cutaneous anaphylaxis (PCA) in Charles Rivers Sprague-Dawley rat after intravenous administration; value range from 4.1 to 5.8.
The subject of assay [12] is Rattus norvegicus. Kind of assay: Inhibition of passive cutaneous anaphylaxis (PCA) in Charles Rivers Sprague-Dawley rat after intravenous administration; value range from 0.3 to 0.8.
The subject of assay [13] is Rattus norvegicus. Kind of assay: Inhibition of passive cutaneous anaphylaxis (PCA) in Charles Rivers Sprague-Dawley rat after intravenous administration; value range from 1.9 to 22.5.
Assay [14] deals with Rattus norvegicus. Kind of assay: Inhibition of passive cutaneous anaphylaxis (PCA) in Charles Rivers Sprague-Dawley rat after intravenous administration; value range from 1.1 to 1.8.
For assay [15], the system named is Rattus norvegicus. Kind of assay: Inhibition of passive cutaneous anaphylaxis (PCA) in Charles Rivers Sprague-Dawley rat after intravenous administration; value range from 0.03 to 0.6.
Assay [16] has as its system Rattus norvegicus. Kind of assay: Inhibition of passive cutaneous anaphylaxis (PCA) in Charles Rivers Sprague-Dawley rat after intravenous administration; value range from 6.2 to 7.8.
Assay [17] has as its system Rattus norvegicus. In words: Inhibition of passive cutaneous anaphylaxis (PCA) in Charles Rivers Sprague-Dawley rat after intravenous administration; value range […].
Assay [18] deals with Rattus norvegicus. Kind of assay: Inhibition of passive cutaneous anaphylaxis (PCA) in Charles Rivers Sprague-Dawley rat after intravenous administration; value range from 0.8 to 1.6.
For assay [19], the system named is Rattus norvegicus. Kind of assay: Inhibition of passive cutaneous anaphylaxis (PCA) in Charles Rivers Sprague-Dawley rat after intravenous administration; value range from 0.8 to 1.5.
Assay [20] relates to Rattus norvegicus. Kind of assay: Inhibition of passive cutaneous anaphylaxis (PCA) in Charles Rivers Sprague-Dawley rat after intravenous administration; value range from 1.4 to 2.1.
Assay [21] deals with Rattus norvegicus. In words: Inhibition of passive cutaneous anaphylaxis (PCA) in Charles Rivers Sprague-Dawley rat after intravenous administration; value range from 0.4 to 0.9.

The compound `Oc1c2nnnc-2oc2ccc3c(c12)CCCC3` showed an ED50 in assay [1] of 2.1 mg/kg. `CCCc1ccc(OC)c2c(O)c3nnnc-3oc12` returned an ED50 in assay [2] of over 10 mg/kg.

In the case of `Cc1c(O)ccc2c(O)c3nnnc-3oc12`, it took a dose of 2.2 mg/kg to reach the 50% effect level in assay [3] (ED50). On to `O=C([O-])c1cc(=O)c2c(OCC(O)COc3cccc4oc(C(=O)[O-])cc(=O)c34)cccc2o1.[Na+].[Na+]` [CROMOLYN SODIUM], for which the ED50 in [4] was determined as 2 mg/kg. Take `CCCc1c(O)ccc2c(O)c3nnnc-3oc12`: the ED50 in assay [5] was found to be 1.1 mg/kg.

As for `Cc1ccc2c(O)c3nnnc-3oc2c1C`, in assay [6], it took a dose of 0.3 mg/kg to reach the 50% effect level (ED50).

In assay [7], `CS(=O)(=O)Oc1ccc2c(O)c3nnnc-3oc2c1` came in with an ED50 of 0.2 mg/kg. Consider `Cc1cc2oc3nnnc-3c(O)c2cc1C`, for which, in assay [8], the 50% effect level (ED50) was put at a dose of 0.4 mg/kg. In assay [9], `Oc1ccc2c(O)c3nnnc-3oc2c1` had an ED50 of 1.8 mg/kg. `Cc1c(OS(C)(=O)=O)ccc2c(O)c3nnnc-3oc12` had an ED50 in assay [10] of 0.2 mg/kg. The compound `Cc1ccc2oc3nnnc-3c(O)c2c1` gave an ED50 in assay [11] of 5 mg/kg. For the compound `Oc1c2nnnc-2oc2cc3c(cc12)CCCC3`, the ED50 in [12] amounted to 0.6 mg/kg. With `COc1cccc2oc3nnnc-3c(O)c12`, in [13], the ED50 was 3.5 mg/kg. As to `Oc1c2nnnc-2oc2ccccc12`, the 50% effect level in assay [14] (ED50) was put at a dose of 1.4 mg/kg.

Regarding `COc1ccc2c(O)c3nnnc-3oc2c1`, the ED50 in assay [15] is 0.3 mg/kg. In the case of `CCCc1ccc(O)c2c(O)c3nnnc-3oc12`, it took a dose of 7 mg/kg to reach the 50% effect level in [16] (ED50). `COc1ccc2oc3nnnc-3c(O)c2c1`: the 50% effect level in assay [17] (ED50) was put at a dose of 1.7 mg/kg. The compound `Cc1cc(C)c2c(O)c3nnnc-3oc2c1C` showed an ED50 in assay [18] of 1.2 mg/kg.

Take `CCCc1c(OC)ccc2c(O)c3nnnc-3oc12`: the ED50 in [19] was 1 mg/kg. In assay [20], `Oc1cccc2oc3nnnc-3c(O)c12` registered an ED50 of 1.7 mg/kg.

`COc1ccc2c(O)c3nnnc-3oc2c1C` gave an ED50 in [8] of 0.4 mg/kg. In turn, `Cc1ccc2oc3nnnc-3c(O)c2c1C` yielded an ED50 in [21] of 0.6 mg/kg.
